Results from patent US11344510B2, “Arylcyclohexylamine derivatives and their use in the treatment of psychiatric disorders” (Gilgamesh Pharmaceuticals, Inc., priority 2019, dated 2022).

Legend:
[1] = Exposure after intraperitoneal administration in mice; type: in vivo; details: CD-1 mice; for Cmax and AUC compared to ketamine at 10 mg/kg: plasma and brain; for AUC(0-inf) / Cmax: male, mouse
Description: Animals. Male CD-1 mice were used in these studies Animals were randomly assigned to treatment groups and were fasted for 4 h before dosing.
Drugs. Test compounds (HCl salts) were dissolved in de-ionized water and administered intraperitoneally (ip) at the indicated doses (calculated based on freebase) and at a volume of 5 mL/kg body weight. Compounds were tested as the racemates (indicated by “rac” nomenclature) or pure enantiomers (indicated by “R” or “S” nomenclature), as indicated.
Pharmacokinetics. Blood samples were collected under 2,2,2-tribromoethanol anesthesia (150 mg/kg, ip) from the orbital sinus at 0.083, 0.25, 0.5, 1, and 2 h (ketamine, 4 animals per time point) or 0.083, 0.25, 0.5, 1, 2, 4, and 8 h (14R and 14S, 4 animals per time point) into microcontainers containing K2EDTA Immediately after collection of blood, mice were euthanized by cervical dislocation and brain samples were collected at the same time points. All samples were immediately processed, flash-frozen, and stored at −70° C. until subsequent analysis. Plasma samples were separated by centrifugation of whole blood and aliquots (50 μL) were mixed with 200 μL, of internal standard solution (400 ng/mL in 1:1 v/v CH3CN:MeOH). After mixing by pipetting and centrifuging for 4 min at 6000 rpm, 0.5 μL of each supernatant was analyzed for drug using a fit-for-purpose liquid chromatography-tandem mass spectrometry (LC-MS/MS) method, with authentic samples of each analyte used for calibration and identification. Brain samples (weight 200 mg±1 mg) were dispersed in 800 μL of internal standard solution (400 ng/mL in 4:1 v/v MeOH:water) using zirconium oxide beads (115 mg±5 mg) in The Bullet Blender® homogenizer for 30 s at speed 8. After homogenization, the samples were centrifuged for 4 min at 14,000 rpm and 0.5 μL of each supernatant was analyzed for drug using a fit-for-purpose LC-MS/MS method, with authentic samples of each analyte used for calibration and identification.
Data Analysis. The drug concentrations of samples below the lower limit of quantitation (LLOQ) were designated as zero. Pharmacokinetic data analysis was performed using noncompartmental, bolus injection or extravascular input analysis models in WinNonlin 5.2 (PharSight). Data points below LLOQ were presented as missing to improve validity of t112 calculations.

SERT = molecular target: T1, SERT (Homo sapiens, UniProt P31645); assay: SERT radioligand binding with [3H]imipramine
T1 construct: expressed in transfected cells; host or cells: HEK293
Description: Radioligand Binding. Affinity of the test compounds for SERT, NET, and DAT was determined in radioligand binding experiments with [^3H]imipramine, [^3]nisoxetine, and [^3H]WIN35,428, respectively, by WuXi AppTec (Hong Kong) Limited, under the conditions described in Table 15.

[2] = MLM stability (Low Activity); type: in vitro ADME, CD-1 mice; details: male, CD-1, mouse, liver microsomes, pH 7.4, Condition 1 (Low Activity), 0.50 mg protein/mL
Outline: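 Pooled male CD-1 mouse liver microsomes (0.50 mg/mL) with 1 μM compound and 1 mM NADPH in 100 mM PBS pH 7.4 with 1 mM MgCl2, 37 °C, six time points over 60 min. Parent remaining by LC-MS/MS; kel, t1/2 and Clint from linear regression of ln(AUC) versus time.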

[3] = RLM stability (Low Activity); type: in vitro ADME, Sprague Dawley rats; details: male, Sprague Dawley, rat, liver microsomes, pH 7.4, Condition 1 (Low Activity), 0.50 mg protein/mL
Outline: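 Pooled male Sprague Dawley rat liver microsomes (0.50 mg/mL) in PBS pH 7.4 with 1 mM MgCl2 and 1 mM NADPH; compound 1 μM, 1.0% solvent, 37° C. Six time points over 60 min, parent remaining by LC-MS/MS; kel, t1/2 and Clint from linear regression of ln(AUC) versus time.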

T1 sequence (P31645 whole entry, species assumed): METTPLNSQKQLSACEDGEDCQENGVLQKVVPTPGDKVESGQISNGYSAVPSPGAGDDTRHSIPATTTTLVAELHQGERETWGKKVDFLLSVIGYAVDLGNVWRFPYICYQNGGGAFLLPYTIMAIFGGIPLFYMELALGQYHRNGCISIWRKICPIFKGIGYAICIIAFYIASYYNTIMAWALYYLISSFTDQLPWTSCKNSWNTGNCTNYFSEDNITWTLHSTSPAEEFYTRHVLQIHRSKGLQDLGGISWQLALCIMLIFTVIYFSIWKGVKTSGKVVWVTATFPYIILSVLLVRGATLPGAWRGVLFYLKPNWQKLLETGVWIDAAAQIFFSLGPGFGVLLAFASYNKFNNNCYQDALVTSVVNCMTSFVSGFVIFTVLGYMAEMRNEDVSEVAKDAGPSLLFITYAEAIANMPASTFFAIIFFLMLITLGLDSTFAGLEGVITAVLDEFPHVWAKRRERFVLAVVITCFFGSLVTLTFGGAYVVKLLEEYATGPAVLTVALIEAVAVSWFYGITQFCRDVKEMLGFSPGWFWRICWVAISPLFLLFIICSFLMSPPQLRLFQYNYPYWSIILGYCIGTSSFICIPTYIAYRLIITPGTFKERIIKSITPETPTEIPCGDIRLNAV

SMILES | Ki (SERT) | half-life at 1 μM [2] | microsomal CLint at 1 μM [2] | half-life at 1 μM [3] | microsomal CLint at 1 μM [3] | also measured
CN[C@]1(c2ccccc2)CCCCC1=O [Compound 14S, (S)-2-(methylamino)-2-phenylcyclohexan-1-one] | 45100 nM |  |  |  |  | Cmax and AUC compared to ketamine at 10 mg/kg ([1]; 3.16 mg/kg ip): comparable to, or higher than; AUC(0-inf) ([1]; brain, 3.16 mg/kg ip): 1220 ng·h/mL; Cmax ([1]; brain, 3.16 mg/kg ip): 3370 ng/mL; AUC(0-inf) ([1]; plasma, 3.16 mg/kg ip): 385 ng·h/mL; Cmax ([1]; plasma, 3.16 mg/kg ip): 875 ng/mL
N[C@]1(c2ccccc2)CCCCC1=O [Compound 11S, (S)-2-amino-2-phenyl-cyclohexan-1-one] |  | > 145 min | < 9.6 µL/min/mg |  |  | 
Cc1ccccc1[C@]1(N)CCCCC1=O [Compound 114R, (R)-2-amino-2-(o-tolyl)cyclohexan-1-one] |  | 43.7 min | 31.7 µL/min/mg | 27.6 min | 50.3 µL/min/mg | 
O=C1CCCC[C@]1(c1ccccc1)N1CCC1 [Compound 84R, (R)-2-(azetidin-1-yl)-2-phenyl-cyclohexan-1-one] | 600 nM |  |  |  |  | 
CN[C@@]1(c2ccccc2)CCCCC1=O [Compound 14R, (R)-2-(methylamino)-2-phenylcyclohexan-1-one] | 40000 nM |  |  |  |  | Cmax and AUC compared to ketamine at 10 mg/kg ([1]; 3.16 mg/kg ip): comparable to, or higher than; AUC(0-inf) ([1]; brain, 3.16 mg/kg ip): 2530 ng·h/mL; Cmax ([1]; brain, 3.16 mg/kg ip): 3320 ng/mL; AUC(0-inf) ([1]; plasma, 3.16 mg/kg ip): 703 ng·h/mL; Cmax ([1]; plasma, 3.16 mg/kg ip): 1010 ng/mL; exposure (AUC) to 14R relative to 14S ([1]; same dose, 3.16 mg/kg ip): roughly 2 fold
N[C@@]1(c2ccccc2)CCCCC1=O [Compound 11R, (R)-2-amino-2-phenyl-cyclohexan-1-one] |  | > 145 min | < 9.6 µL/min/mg |  |  | 
O=C1CCCC[C@@]1(c1ccccc1)N1CCC1 [Compound 84S, (S)-2-(azetidin-1-yl)-2-phenyl-cyclohexan-1-one] | 720 nM |  |  |  |  | 
O=C1CCCCC1(c1ccccc1)N1CCCC1 (racemic) [Compound 27rac, 2-phenyl-2-(pyrrolidin-1-yl)cyclohexan-1-one] | 110 nM |  |  | 35.4 min | 39.1 µL/min/mg | 
CNC1(c2ccccc2Cl)CCCCC1=O (racemic) [rac-ketamine, racemic ketamine, reference compound] |  |  |  |  |  | AUC(0-inf) ([1]; brain, 10 mg/kg ip): 725 ng·h/mL; Cmax ([1]; brain, 10 mg/kg ip): 2250 ng/mL; AUC(0-inf) ([1]; plasma, 10 mg/kg ip): 382 ng·h/mL; Cmax ([1]; plasma, 10 mg/kg ip): 822 ng/mL
Cc1ccccc1[C@@]1(N)CCCCC1=O [Compound 114S, (S)-2-amino-2-(o-tolyl)cyclohexan-1-one] |  | 80.9 min | 17.1 µL/min/mg | 25.4 min | 54.5 µL/min/mg | 
